Source: patent US9902696B2, “1,4-substituted piperidine derivatives” (Cephalon, Inc., priority 2015, dated 2018)
pIC50: −log10 of the molar value. Where a name gives a salt, the structure may show the parent alone.

target: T1, recombinant human baculovirus-expressed GST-tagged FASN (Homo sapiens, UniProt P49327); test: FASN enzyme activity assay, fluorescence-based detection of CoA with CPM; type: biochemical; settings: 5 nM FASN, 150 μM NADPH, 10 μM acetyl-CoA, 25 μM malonyl-CoA, 90 minutes incubation; read-out: IC50 data for Additional Compounds of Formulae I-V(a): Activity
T1 construct: GST
T1 sequence (P49327 whole entry): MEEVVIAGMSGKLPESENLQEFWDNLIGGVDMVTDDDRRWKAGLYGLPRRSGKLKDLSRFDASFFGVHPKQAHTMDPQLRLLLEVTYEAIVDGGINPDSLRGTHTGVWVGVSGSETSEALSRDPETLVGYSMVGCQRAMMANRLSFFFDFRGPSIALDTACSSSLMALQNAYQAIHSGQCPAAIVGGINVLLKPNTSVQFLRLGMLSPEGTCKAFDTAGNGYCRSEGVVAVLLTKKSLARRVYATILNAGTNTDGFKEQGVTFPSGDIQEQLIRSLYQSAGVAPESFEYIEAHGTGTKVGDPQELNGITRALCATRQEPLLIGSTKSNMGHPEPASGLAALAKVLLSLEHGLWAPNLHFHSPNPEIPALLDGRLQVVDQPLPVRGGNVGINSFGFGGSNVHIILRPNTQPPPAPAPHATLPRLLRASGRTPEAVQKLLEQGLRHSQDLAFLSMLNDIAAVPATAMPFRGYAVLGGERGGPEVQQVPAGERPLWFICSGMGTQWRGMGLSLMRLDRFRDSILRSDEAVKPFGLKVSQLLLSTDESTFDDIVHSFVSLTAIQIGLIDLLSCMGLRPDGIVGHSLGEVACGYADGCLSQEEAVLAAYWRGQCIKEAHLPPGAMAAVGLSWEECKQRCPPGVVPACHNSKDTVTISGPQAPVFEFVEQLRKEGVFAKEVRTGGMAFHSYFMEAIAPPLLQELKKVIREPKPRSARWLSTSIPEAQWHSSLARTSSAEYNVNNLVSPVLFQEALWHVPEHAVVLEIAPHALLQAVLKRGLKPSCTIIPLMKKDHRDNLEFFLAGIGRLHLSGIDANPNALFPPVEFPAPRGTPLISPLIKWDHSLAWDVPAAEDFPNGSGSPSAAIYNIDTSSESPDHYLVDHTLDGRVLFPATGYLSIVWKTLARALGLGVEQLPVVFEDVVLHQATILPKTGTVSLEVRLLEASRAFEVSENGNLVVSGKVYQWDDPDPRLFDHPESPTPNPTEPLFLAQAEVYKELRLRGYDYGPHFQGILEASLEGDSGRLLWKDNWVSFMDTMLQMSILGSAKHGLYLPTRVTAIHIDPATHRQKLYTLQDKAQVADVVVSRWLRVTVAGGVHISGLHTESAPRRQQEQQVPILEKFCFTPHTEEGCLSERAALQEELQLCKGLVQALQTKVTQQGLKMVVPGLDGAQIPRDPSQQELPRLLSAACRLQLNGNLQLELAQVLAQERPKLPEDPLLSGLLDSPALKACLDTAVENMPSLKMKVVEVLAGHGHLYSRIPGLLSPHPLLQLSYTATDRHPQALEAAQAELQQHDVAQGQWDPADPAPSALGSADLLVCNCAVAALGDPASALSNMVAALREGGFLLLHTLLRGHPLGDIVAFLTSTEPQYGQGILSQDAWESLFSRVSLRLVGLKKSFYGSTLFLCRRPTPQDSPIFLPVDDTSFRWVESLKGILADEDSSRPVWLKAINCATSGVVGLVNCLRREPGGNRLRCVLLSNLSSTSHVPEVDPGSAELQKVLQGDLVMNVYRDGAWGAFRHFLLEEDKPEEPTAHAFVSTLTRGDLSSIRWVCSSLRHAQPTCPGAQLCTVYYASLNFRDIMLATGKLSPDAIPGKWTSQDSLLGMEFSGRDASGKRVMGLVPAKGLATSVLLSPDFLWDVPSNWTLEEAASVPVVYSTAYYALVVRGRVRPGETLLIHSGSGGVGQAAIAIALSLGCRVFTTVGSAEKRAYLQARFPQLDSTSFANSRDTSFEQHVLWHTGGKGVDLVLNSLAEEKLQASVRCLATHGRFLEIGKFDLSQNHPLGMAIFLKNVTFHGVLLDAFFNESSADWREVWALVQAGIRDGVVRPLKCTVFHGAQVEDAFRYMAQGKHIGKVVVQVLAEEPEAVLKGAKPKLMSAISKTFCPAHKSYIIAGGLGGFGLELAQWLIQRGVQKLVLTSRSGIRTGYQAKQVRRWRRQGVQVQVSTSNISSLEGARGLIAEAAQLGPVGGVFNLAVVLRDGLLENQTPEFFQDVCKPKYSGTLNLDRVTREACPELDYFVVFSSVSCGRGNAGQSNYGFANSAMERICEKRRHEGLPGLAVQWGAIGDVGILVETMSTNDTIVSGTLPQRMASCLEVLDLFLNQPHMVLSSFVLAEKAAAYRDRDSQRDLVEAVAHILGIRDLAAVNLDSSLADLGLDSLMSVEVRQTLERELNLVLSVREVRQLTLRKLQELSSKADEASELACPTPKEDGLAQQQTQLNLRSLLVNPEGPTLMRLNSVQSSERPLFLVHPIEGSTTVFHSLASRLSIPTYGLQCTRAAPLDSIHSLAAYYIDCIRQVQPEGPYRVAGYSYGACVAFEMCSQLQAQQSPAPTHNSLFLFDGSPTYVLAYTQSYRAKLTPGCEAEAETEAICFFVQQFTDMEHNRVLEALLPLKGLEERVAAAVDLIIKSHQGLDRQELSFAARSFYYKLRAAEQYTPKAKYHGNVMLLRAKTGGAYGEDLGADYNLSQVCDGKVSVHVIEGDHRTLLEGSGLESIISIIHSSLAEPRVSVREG
Summary of the method: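 Human GST-tagged FASN, baculovirus-expressed (5 nM), in 50 mM HEPES pH 7.5 with 150 μM NADPH, 10 μM acetyl-CoA, 25 μM malonyl-CoA, 0.5% DMSO; malonyl-CoA-started, 90 min. Released CoA detected with CPM (50 μM dilution), 30 min, fluorescence ex 390/em 530. IC50 from variable-slope sigmoidal fit of % inhibition versus log concentration.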

| pIC50 | Compound |
| --- | --- |
| 5.00 to 6.00 | C=CCOC(=O)N1CCC(Oc2ccc(-c3ccc4cccnc4c3C)cc2)CC1 [Example 551, Allyl 4-[4-(8-methyl-7-quinolyl)phenoxy]piperidine-1-carboxylate, HCl] |
| 5.00 to 6.00 | Cc1c(-c2ccc(OC3CCN(C(=O)NCC(F)(F)F)CC3)cc2)ccc2nccn12 [Example 606, 4-[4-(5-Methylimidazo[1,2-a]pyridin-6-yl)phenoxy]-N-(2,2,2-trifluoro-ethyl)piperidine-1-carboxamide] |
| 5.00 to 6.00 | Cc1c(-c2ccc(OC3CCN(C(=O)C4(N)CCC4)CC3)cc2)ccc2cccnc12 [Example 627, (1-Aminocyclobutyl)-[4-[4-(8-methyl-7-quinolyl)phenoxy]-1-piperidyl]-methanone] |

same assay, conditions: 5 nM FASN, 150 μM NADPH, 10 μM acetyl-CoA, 25 μM malonyl-CoA, 90 minutes incubation; read-out: IC50 data for Compounds of Formulae I-V/V(a): Activity

| Compound | pIC50 |
| --- | --- |
| CCC(=O)N1CCC(Oc2ccc(-c3cnc(OC)c(OC)c3)cc2)CC1 [Example 498, 1-{4-[4-(5,6-Dimethoxypyridin-3-yl)-phenoxy]-piperidin-1-yl}-propan-1-one] | 5.00 to 6.00 |
| CCC(=O)N1CCC(Oc2ccc(-c3cncc(Oc4ccccc4)c3)cc2)CC1 [Example 397, 1-{4-[4-(5-Phenoxypyridin-3-yl)-phenoxy]-piperidin-1-yl}-propan-1-one, TFA] | 5.00 to 6.00 |
| CCC(=O)N1CCC(Oc2ccc(-c3ccc4cnccc4c3)nc2)CC1 [Example 147, 1-[4-(6-Isoquinolin-6-yl-pyridin-3-yloxy)-piperidin-1-yl]-propan-1-one, 2HCl] | 5.00 to 6.00 |
| Cc1c(-c2ccc(OC3CCN(C(=O)C4CC4(C)C)CC3)cc2)ccc2cccnc12 (stereo not shown) [Example 322, (2,2-Dimethylcyclopropyl)-{4-[4-(8-methyl-quinolin-7-yl)-phenoxy]-piperidin-1-yl}-methanone] | 7.00 to 9.00 |
| CCC(=O)N1CCC(Oc2ccc(-c3cncc(-c4ccccc4)c3)cc2)CC1 [Example 382, 1-{4-[4-(5-Phenylpyridin-3-yl)-phenoxy]-piperidin-1-yl}-propan-1-one] | 5.00 to 6.00 |
| O=C(C1CC1)N1CCC(Oc2ccc(-c3ccc(N4CCOCC4)nc3)cc2)CC1 [Example 387, Cyclopropyl-{4-[4-(6-morpholin-4-yl-pyridin-3-yl)-phenoxy]-piperidin-1-yl}-methanone] | 5.00 to 6.00 |
| O=C(C1CC1)N1CCC(Oc2ccc(-c3ccc(Oc4ccccc4)nc3)cc2)CC1 [Example 390, Cyclopropyl-{4-[4-(6-phenoxy-pyridin-3-yl)-phenoxy]-piperidin-1-yl}-methanone] | 5.00 to 6.00 |
| Cc1cc2cccnc2cc1-c1ccc(OC2CCN(C(=O)[C@H]3CCCO3)CC2)cc1 [Example 275, {4-[4-(6-Methylquinolin-7-yl)-phenoxy]-piperidin-1-yl}-(R)-tetrahydro-furan-2-yl-methanone] | 6.00 to 7.00 |
| CCC(=O)N1CCC(Oc2ccc(-c3cc(C)cc4ncccc34)cc2)CC1 [Example 348, 1-(4-(4-(7-methylquinolin-5-yl)phenoxy)piperidin-1-yl)propan-1-one HCl] | 7.00 to 9.00 |
| O=C(C1CCC1)N1CCC(Oc2ccc(-c3ccc(N4CCOCC4)nc3)cc2)CC1 [Example 388, Cyclobutyl-{4-[4-(6-morpholin-4-yl-pyridin-3-yl)-phenoxy]-piperidin-1-yl}-methanone] | 5.00 to 6.00 |
| Cc1c(-c2ccc(OC3CCN(C(=O)N4CCCC4)CC3)cc2)ccc2cccnc12 [Example 94, [4-[4-(8-methyl-7-quinolyl)phenoxy]-1-piperidyl]-pyrrolidin-1-yl-methanone] | 7.00 to 9.00 |
| O=C([C@H]1CCCO1)N1CCC(Oc2ccc(-c3ccc4cccnc4c3NCCN3CCCC3)cc2)CC1 [Example 334, (4-{4-[8-(2-Pyrrolidin-1-yl-ethylamino)-quinolin-7-yl]-phenoxy}-piperidin-1-yl)-(R)-tetrahydrofuran-2-yl-methanone] | 6.00 to 7.00 |
| CCNC(=O)N1CCC(Oc2ccc(-c3ccc4cccnc4c3C)cc2)CC1 [Example 88, N-ethyl-4-[4-(8-methyl-7-quinolyl)phenoxy]piperidine-1-carboxamide] | 7.00 to 9.00 |
| O=C(c1ncco1)N1CCC(Oc2ccc(-c3cnc4ccccc4c3)cc2)CC1 [Example 123, Oxazol-2-yl-[4-(4-quinolin-3-yl-phenoxy)-piperidin-1-yl]-methanone; HCl] | 5.00 to 6.00 |
| CCC(=O)N1CCC(Oc2ccc(-c3ccc(Oc4ccccc4)nc3)cc2)CC1 [Example 389, 1-{4-[4-(6-Phenoxy-pyridin-3-yl)-phenoxy]-piperidin-1-yl}-propan-1-one] | 5.00 to 6.00 |
| O=C([C@H]1CCCO1)N1CCC(Oc2ccc(-c3ccc4nnc(C(F)(F)F)n4c3)cc2)CC1 [Example 161, (R)-Tetrahydrofuran-2-yl-{4-[4-(3-trifluoromethyl-1,2,4-triazolo[4,3-a]pyridin-6-yl)-phenoxy]-piperidin-1-yl}-methanone] | 5.00 to 6.00 |
| O=C(C1CC1)N1CCC(Oc2ccc(-c3cnc4cccnc4c3)cc2)CC1 [Example 14, Cyclopropyl-[4-(4-1,5-naphthyridin-3-yl-phenoxy)-piperidin-1-yl]-methanone] | 5.00 to 6.00 |
| CCC(=O)N1CCC(Oc2ccc(-c3cnc4ccccc4c3)c(C)c2)CC1 [Example 207, 1-[4-(3-Methyl-4-quinolin-3-yl-phenoxy)-piperidin-1-yl]-propan-1-one] | 6.00 to 7.00 |

Results, then the compound that gave them:

| pIC50 | Compound |
| --- | --- |
| 7.00 to 9.00 | CN(C)c1c(-c2ccc(OC3CCN(C(=O)[C@H]4CCCO4)CC3)cc2)ccc2cccnc12 [Example 331, [4-[4-[8-(Dimethylamino)-7-quinolyl]phenoxy]-1-piperidyl]-[(2R)-tetrahydro-furan-2-yl]methanone] |
| 7.00 to 9.00 | Cc1nccc2cc(-c3ccc(OC4CCN(C(=O)[C@H]5CCCO5)CC4)cc3)ccc12 [Example 431, {4-[4-(1-Methylisoquinolin-6-yl)-phenoxy]-piperidin-1-yl}-(R)-tetrahydro-furan-2-yl-methanone] |
| 7.00 to 9.00 | O=C(C1CCC1)N1CCC(Oc2ccc(-c3cnc4ccccc4c3)cc2)CC1 [Example 101, Cyclobutyl-[4-(4-quinolin-3-yl-phenoxy)-piperidin-1-yl]-methanone,HCl] |
| 6.00 to 7.00 | Cc1nccc2cc(-c3ccc(OC4CCN(C(=O)C5CC(F)(F)CO5)CC4)cc3)ccc12 (stereo not shown) [Example 165] |
| 7.00 to 9.00 | CNc1c(-c2ccc(OC3CCN(C(=O)[C@H]4CCCO4)CC3)cc2)ccc2cccnc12 [Example 325, {4-[4-(8-Methylaminoquinolin-7-yl)-phenoxy]-piperidin-1-yl}-(R)-tetrahydrofuran-2-yl-methanone] |
| 7.00 to 9.00 | Nc1c(-c2ccc(OC3CCN(C(=O)[C@H]4CCCO4)CC3)cc2)ccc2cccnc12 [Example 324, [4-[4-(8-Amino-7-quinolyl)phenoxy]-1-piperidyl]-[(2R)-tetrahydrofuran-2-yl]methanone] |
| 7.00 to 9.00 | Cc1cccc2ncc(-c3ccc(OC4CCN(C(=O)[C@H]5CCCO5)CC4)cc3)cc12 [Example 462, {4-[4-(5-Methylquinolin-3-yl)-phenoxy]-piperidin-1-yl}-(R)-tetrahydro-furan-2-yl-methanone, HCl] |
| 5.00 to 6.00 | CC(C)C(=O)N1CCC(Oc2ncc(-c3cnc4ccccc4c3)cn2)CC1 [Example 138, 2-Methyl-1-[4-(5-quinolin-3-yl-pyrimidin-2-yloxy)-piperidin-1-yl]-propan-1-one, 2HCl] |
| 6.00 to 7.00 | CCC(=O)N1CCC(Oc2ccc(-c3ccc(OC)c(OC)c3)cc2)CC1 [Example 491, 1-[4-(3′,4′-Dimethoxy-biphenyl-4-yloxy)-piperidin-1-yl]-propan-1-one] |
| 5.00 to 6.00 | COC(=O)N1CCC(Oc2ccc(-c3cnc4ccccc4c3)c(C)c2)CC1 [Example 208, 4-(3-Methyl-4-quinolin-3-yl-phenoxy)-piperidine-1-carboxylic acid methyl ester] |
| 5.00 to 6.00 | CCC(=O)N1CCC(Oc2cccc(-c3cnc4ccccc4c3)c2)CC1 [Example 496, 1-[4-(3-Quinolin-3-yl-phenoxy)-piperidin-1-yl]-propan-1-one] |
| 5.00 to 6.00 | CC(C)C(=O)N1CCC(S(=O)(=O)c2ccc(-c3ccc4occc4c3)cc2)CC1 [Example 515, 1-[4-(4-Benzofuran-5-yl-benzenesulfonyl)-piperidin-1-yl]-2-methyl-propan-1-one] |
| 5.00 to 6.00 | COc1cc(OC2CCN(C(=O)C3CC3)CC2)ccc1-c1cnc2ccccc2c1 [Example 211, Cyclopropyl-[4-(3-methoxy-4-quinolin-3-yl-phenoxy)-piperidin-1-yl]-methanone] |
| 6.00 to 7.00 | COc1cccc2ncc(-c3ccc(OC4CCN(C(=O)[C@H]5CCCO5)CC4)cc3)cc12 [Example 465, {4-[4-(5-Methoxyquinolin-3-yl)-phenoxy]-piperidin-1-yl}-(R)-tetrahydro-furan-2-yl-methanone, HCl] |
| 6.00 to 7.00 | CCC(=O)N1CCC(Oc2ccc(-c3ccc4ccccc4n3)cc2)CC1 [Example 40, 1-[4-(4-Quinolin-2-yl-phenoxy)-piperidin-1-yl]-propan-1-one] |
| 5.00 to 6.00 | O=C(C1CC1)N1CCC(Oc2ccc(-c3ccc(-c4ccccc4)nc3)cc2)CC1 [Example 380, Cyclopropyl-{4-[4-(6-phenyl-pyridin-3-yl)-phenoxy]-piperidin-1-yl}-methanone] |
| 6.00 to 7.00 | O=C(C1CC1)N1CCC(Oc2ccc(-c3ccc4cccnc4c3)cn2)CC1 [Example 137, Cyclopropyl-[4-(5-quinolin-7-yl-pyridin-2-yloxy)-piperidin-1-yl]-methanone, HCl] |
| 7.00 to 9.00 | O=C([C@H]1CCCO1)N1CCC(Oc2ccc(-c3ccc4c(C5CC5)nccc4c3)cc2)CC1 [Example 440, {4-[4-(1-Cyclopropylisoquinolin-6-yl)-phenoxy]-piperidin-1-yl}-(R)-tetrahydrofuran-2-yl-methanone] |
| 5.00 to 6.00 | CCC(=O)N1CCC(Oc2ccc(-c3cc4ncccc4cc3C)cc2)CC1 [Example 276, 1-{4-[4-(6-Methylquinolin-7-yl)-phenoxy]-piperidin-1-yl}-propan-1-one] |
